Measurements taken from paper PMC9088798, “An Approach to Derive Functional Peptide Inhibitors of Transcription Factor Activity” (JACS Au, 2022).

Legend:
[1] = target: T1, cJun bZIP/TRE DNA interaction (Homo sapiens, UniProt P05412); test: EMSA, antagonism of cJun/TRE DNA interaction; type: biochemical; conditions: cJun bZIP 20 μM, TRE DNA 2 μM, free DNA band intensity, 4°C 30 minutes, pH 8, 1.3% agarose gel; Hill equation; three independent experiments, one SD
T1 construct: The human cJun bZIP domain spans from Arg252 to Leu308; His-SUMO (N, cleaved yes); AS cap (two residues Ala-Ser) (N); GAP cap (three residues Gly-Ala-Pro) (C); made in house; host or cells: E. coli (pET21-His-SUMO plasmid)
T1 sequence (P05412 252-308): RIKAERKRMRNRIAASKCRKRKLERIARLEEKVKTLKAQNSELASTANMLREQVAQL
Source text: Figure 6 HingeW antagonizes cJun/TRE DNA interaction more effectively than A-FosW. (A) CD spectra showing a shift in the TRE DNA peak at ∼281 nm upon addition of cJun, which is reversed by the titration of HingeW into the sample, as HingeW sequesters the cJun in a nonfunctional heterodimer. […] EMSA showing the (C) unbound TRE DNA band shift upon addition of cJun and the subsequent restoration of the unbound DNA band intensity upon titration of either (D) HingeW or (E) A-FosW. (F). For both CD and EMSA, data was averaged from three independent experiments and the plotted error bars indicate one standard deviation.
To provide further evidence of functional antagonism, an electrophoretic mobility shift assay (EMSA) was employed. […] No bound cJun/TRE DNA band was observed as the overall charge of this complex prohibited entry into the gel. Antagonism was therefore best observed by monitoring the intensity of the free DNA band. […]
Control experiments involved the injection of the antagonist peptide sample into the cell containing ITC buffer alone to determine the heat of dilution which was subtracted. The resulting binding data were fit to a one site binding model to extract the enthalpy change of binding (ΔH) and the equilibrium binding constant (K D), from which the free energy change of binding (ΔG) and the entropy change of binding (ΔS) was calculated (41). […]

[2] = test system: TRE DNA; test: EMSA, binding of cJun bZIP to TRE DNA; conditions: cJun bZIP 20 μM, TRE DNA 2 μM, relative to DNA alone
Procedure: To provide further evidence of functional antagonism, an electrophoretic mobility shift assay (EMSA) was employed. […] No bound cJun/TRE DNA band was observed as the overall charge of this complex prohibited entry into the gel. Antagonism was therefore best observed by monitoring the intensity of the free DNA band.
Isothermal Titration Calorimetry (ITC): Peptides were studied in an ITC buffer consisting of 10 mM potassium phosphate, 150 mM potassium fluoride and 5 mM TCEP at pH 7.4. Using a MicroCal VP-ITC instrument (Malvern), 10 µL injections of antagonist peptide (HingeW or A-FosW) at 10 µM were injected into the cell containing cJun at 1 µM.
MicroCal Origin software was used to record and analyse the heat change upon addition.
Control experiments involved the injection of the antagonist peptide sample into the cell containing ITC buffer alone to determine the heat of dilution which was subtracted. The resulting binding data were fit to a one site binding model to extract the enthalpy change of binding (ΔH) and the equilibrium binding constant (K D), from which the free energy change of binding (ΔG) and the entropy change of binding (ΔS) was calculated (41).
Thermodynamic parameters are presented as an average of two independent experiments with errors given as one standard deviation. […]

Row | Substance | IC50 [1] [µM] | free DNA band intensity on adding cJun bZIP [2]
1 | LEQRAEELARENEELEKEAEELEQELDELQAEIEQLEERNYALRKEIEDLQKQLEKL [A-FosW, N-terminal AS and C-terminal GAP caps, 6xHis-tagged] | 12.1 ± 1.9 | –
2 | cJun bZIP: human cJun bZIP domain, Arg252 to Leu308 (target protein) | – | significant reduction in the free DNA band intensity
